The values that follow come from PMC6934184, “Selective DNA-PKcs inhibition extends the therapeutic index of localized radiotherapy and chemotherapy” (The Journal of Clinical Investigation, 2019).

The target in the assay is T1, STK23 (MSSK1) (Homo sapiens, UniProt Q9UPE1).
T1 construct: purchased Thermo Fisher Scientific (Life Technologies) SelectScreen
Description: SelectScreen Z'LYTE. The format is biochemical. In a few lines: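 NU5455 was profiled across the SelectScreen Broad panel of kinase activity and binding assays. Z'LYTE reactions such as CSF1R ran at apparent Km ATP, while the Adapta CAMK1 assay used ATP listed as 10. Values are given as percent.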

T1 sequence (Q9UPE1 whole entry): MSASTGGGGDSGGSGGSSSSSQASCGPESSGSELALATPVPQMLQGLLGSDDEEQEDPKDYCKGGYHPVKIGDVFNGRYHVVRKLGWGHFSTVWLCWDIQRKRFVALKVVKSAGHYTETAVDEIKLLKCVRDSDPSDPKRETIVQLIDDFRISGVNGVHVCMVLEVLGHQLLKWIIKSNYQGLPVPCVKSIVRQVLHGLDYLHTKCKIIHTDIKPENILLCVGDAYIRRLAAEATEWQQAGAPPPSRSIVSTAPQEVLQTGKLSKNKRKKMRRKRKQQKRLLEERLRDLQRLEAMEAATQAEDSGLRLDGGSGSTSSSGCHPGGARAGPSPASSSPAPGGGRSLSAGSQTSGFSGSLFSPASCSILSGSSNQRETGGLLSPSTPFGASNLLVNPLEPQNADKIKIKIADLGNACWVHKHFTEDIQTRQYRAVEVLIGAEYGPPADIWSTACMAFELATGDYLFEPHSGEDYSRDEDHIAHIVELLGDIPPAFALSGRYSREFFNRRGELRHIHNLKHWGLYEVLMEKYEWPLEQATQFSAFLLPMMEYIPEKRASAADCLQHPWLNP

As usually defined, the inhibition is the relative decrease from the control value, in per cent. `CN(C(=O)CN1CCOCC1)c1ccc2sc3c(-c4cccc5c(=O)cc(N6CC7CCC(C6)O7)oc45)cccc3c2c1` [NU5455] displayed an inhibition at 1 µM of 2%.
